Two compounds from patent publication EP1140919B1, “1,4-DISUBSTITUTED CYCLOHEXANE DERIVATIVES FOR THE TREATMENT OF DEPRESSION” (Wyeth, priority 1999, dated 2000) can be followed below.

One assay deals with T1, serotonin transporter (Rattus norvegicus, UniProt P31652).
T1 construct: frontal cortical membranes prepared from male Sprague-Dawley rats; from tissue; host or cells: frontal cortex of male Sprague-Dawley rats (membranes)
Nature of the assay: Serotonin transporter binding assay with 3H-paroxetine on frontal cortical membranes. Details: species or system male Sprague-Dawley rats. On the procedure:
A protocol similar to that used by Cheetham et al., Neuropharmacol., 32:737 (1993) was used to determine the affinity of compounds for the serotonin transporter. Briefly, frontal cortical membranes prepared from male Sprague-Dawley rats were incubated with ^3H-paroxetine (0.1 nM) for 60 min at 25°C. All tubes also contained either vehicle, test compound (one to eight concentrations), or a saturating concentration of fluoxetine (10 µM) to define […]. All reactions were terminated by the addition of ice cold Tris buffer followed by rapid filtration using a Tom Tech filtration device to separate bound from free ^3H-paroxetine. Bound radioactivity was quantitated using a Wallac 1205 Beta Plate® counter. Nonlinear regression analysis was used to determine IC50 values which were converted to Ki values using the method set forth in Cheng and Prusoff, Biochem. Pharmacol., 22:3099 (1973) ([…].

In the next assay the target is T2, human 5-HT1A receptor (Homo sapiens, UniProt P08908).
T2 construct: expressed in transfected cells
T2 sequence (P08908 1-422): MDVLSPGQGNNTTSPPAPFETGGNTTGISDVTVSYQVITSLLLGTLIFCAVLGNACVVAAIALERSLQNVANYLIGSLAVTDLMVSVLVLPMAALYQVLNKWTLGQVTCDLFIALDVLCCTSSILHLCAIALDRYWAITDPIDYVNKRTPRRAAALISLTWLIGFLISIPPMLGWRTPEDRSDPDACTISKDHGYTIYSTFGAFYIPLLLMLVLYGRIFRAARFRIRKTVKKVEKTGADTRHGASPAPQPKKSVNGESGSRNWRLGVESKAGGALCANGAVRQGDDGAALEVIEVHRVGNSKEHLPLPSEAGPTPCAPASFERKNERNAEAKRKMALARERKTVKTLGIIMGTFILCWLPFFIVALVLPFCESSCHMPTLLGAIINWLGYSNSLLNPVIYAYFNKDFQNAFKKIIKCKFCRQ
Kind of assay: 5-HT1A receptor binding assay with [3H]8-OH-DPAT on CHO cell membranes. The note with it: @ 1000 nM, 5-HT1A.CHO cell membranes. On the procedure: The PCR cloning of the human 5-HT1A receptor subtype from a human genomic library has been described previously by Chanda et al., Mol. Pharmacol., 43:516 (1993). A stable Chinese hamster ovary cell line expressing the human 5-HT1A receptor subtype (5-HT1A.CHO cells) was employed throughout this study. Cells were maintained in DMEM supplemented with 10% fetal calf serum, non-essential amino acids and penicillin/ streptomycin.
Cells were grown to 95-100% confluency as a monolayer before membranes were harvested for binding studies. Cells were gently scraped from the culture plates, transferred to centrifuge tubes, and washed twice by centrifugation (2000 rpm for 10 min., 4°C) in buffer (50 mM Tris; pH 7.5). The resulting pellets were aliquoted and maintained at -80•C. On the day of assay, the cells were thawed on ice, and resuspended in buffer. Studies were conducted using [^3H]8-OH-DPAT as the radioligand. The binding assay was performed in 96 well microtiter plates in a final total volume of 250 µL of buffer. Comparison experiments werc performed by using 7 concentrations of unlabelled drug and a final ligand concentration of 1.5 nM. Nonspecific binding was determined in the presence of 10 µM 5HT. Saturation analysis was conducted by using [^3H]8-OH-DPAT at concentrations ranging from 0.3-30 nM. […]

T1 sequence (P31652 whole entry): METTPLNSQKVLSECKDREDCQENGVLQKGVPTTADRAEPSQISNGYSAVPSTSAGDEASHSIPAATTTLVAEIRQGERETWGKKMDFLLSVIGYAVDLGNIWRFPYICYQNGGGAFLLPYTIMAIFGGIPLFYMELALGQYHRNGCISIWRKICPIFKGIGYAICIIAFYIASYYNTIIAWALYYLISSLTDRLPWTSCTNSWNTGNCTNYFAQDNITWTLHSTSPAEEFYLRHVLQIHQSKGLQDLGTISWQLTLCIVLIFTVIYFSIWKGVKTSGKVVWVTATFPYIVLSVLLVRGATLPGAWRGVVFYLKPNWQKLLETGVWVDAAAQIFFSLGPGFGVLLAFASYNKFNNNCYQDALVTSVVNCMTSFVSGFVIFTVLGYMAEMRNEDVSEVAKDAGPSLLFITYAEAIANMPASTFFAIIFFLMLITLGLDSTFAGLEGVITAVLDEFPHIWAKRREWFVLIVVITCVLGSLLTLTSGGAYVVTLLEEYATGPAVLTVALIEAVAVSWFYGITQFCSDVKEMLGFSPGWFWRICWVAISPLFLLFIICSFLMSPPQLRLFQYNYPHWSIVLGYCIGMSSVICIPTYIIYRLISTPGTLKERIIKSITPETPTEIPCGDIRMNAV

On to `COc1ccsc1C1=CCN([C@H]2CC[C@H](c3c[nH]c4ccc(F)cc43)CC2)CC1` [Example 2, 5-Fluoro-3-{(1,4-trans)-4-[4-(3-methoxy-thiophen-2-yl)-3,6-dihydro-2H-pyridin-1-yl]-cyclohexyl}-1H-indole], for which the “ST (Ki, nM,)” value at serotonin transporter (@ 100 nM, 3H-paroxetine, rat frontal cortical membranes) turned out to be 18% @ 100 nM.

On to `COc1ccsc1C1=CCN([C@H]2CC[C@@H](c3c[nH]c4ccc(F)cc43)CC2)CC1` [Example 1, 5-Fluoro-3-{(1,4-cis)-4-[4-(3-methoxy-thiophen-2-yl)-3,6-dihydro-2H-pyridin-1-yl]-cyclohexyl}-1H-indole], for which the affinity on serotonin transporter, expressed as Ki, was 2.5 nM. Further, the “5-HT1A (Ki, nM)” value on human 5-HT1A receptor came to 48% @ 1000 nM.

Broadly, the Ki is the equilibrium dissociation constant of an inhibitor or competing ligand from its target.
